Patent US12344599B2, “Prodigiosin analogs and methods of use” (Institute For Cancer Research, priority 2016, dated 2025)

What was measured:
Assay type in all cases: cell-based, human
[1] = tested on: γ-H2AX in HT29 and SW480 cells; assay: γ-H2AX DNA damage marker, western blot and immunofluorescence staining
Procedure: After treatment, protein lysates were collected for Western blot analysis. A total of […] of protein was used for SDS-PAGE. After primary and secondary antibody incubations, the signal was detected by a chemiluminescence detection kit, imaged by Syngene (Imgen Technologies). Antibodies for PUMA (for IHC), p53 (Santa Cruz Biotechnology), caspase 8, cleaved caspase 8, caspase 9, caspase 3, cleavage PARP, eIF2α, p-eIF2α (Ser51), CHOP, ATF4, DR5, FOXO3a, p-FOXO3a (Ser253), NF-κB p65, p-NF-κB p65 (Ser536), c-Jun, p-c-Jun (Ser63), JNK, p-JNK (Thr183/Tyr185), PUMA (for WB), c-Myc, phosphor-S62-cMyc (Cell Signaling Technology), Noxa, p21 (Calbiochem), p73 (Bethyl laboratories Inc), Ran (BD Biosciences), […] (Sigma).
A total of 5×10^4 cells were seeded in each well of 8-well chamber slides. After treatment, cells were fixed and permeabilized by methanol:acetone (1:1) for 20 minutes at −20° C. Fixed cells were blocked by 2% BSA for 1 hour, followed by primary antibody incubation for 1 hours and Cy3-conjuated secondary antibody incubation for 1 hour at room temperature. After washing, cells were stained with DAPI for 10 minutes at room temperature. Cells were mounted, and examined by fluorescence microscopy.
DNA damage induces the p53 pathway and leads to cell apoptosis. To study whether the p53 pathway restoration by compound PG3-Oc is due to DNA damage, the uptake and localization of PG3-Oc was investigated in cells. PG3-Oc and prodigiosin are red fluorescent compounds, and their localization in live cells can be monitored by fluorescence microscopy. PG3-Oc and prodigiosin rapidly entered cells within 2 hours of incubation and remained in the cytosol at the 8-hour time point in HT29 and SW480 cells (FIG. 46). […] Baldino, et al. reported that prodigiosin localized to the cytoplasm, but not within the nucleus, and no γ-H2AX signal was detected in A549 cancer cells (Baldino et al., Bioorg Med Chem Lett, 2006, 16, 701-704). […]

panel of CRC cell lines = assay: Colony formation assay (long-term cell proliferation); settings: low dose
Procedure: Five hundred cells were seeded per well in 6-well plates and treated with different concentrations of compounds for 24 hours, then, cells were cultured with drug-free complete medium for 2 weeks with fresh medium changed every 7 days. Cells were fixed with 10% formalin and stained with 0.05% crystal violet at the end of 2 weeks period of cell culture (Franken et al., Nat. Protoc., 2006, 1, 2315-9).

[2] = tested on: SW480, DLD1 and p53-null cell line HCT116; assay: CellTiter-Glo luminescent cell viability assay (Example 1)
Procedure: SW480, DLD-1, DLD1-p73KD, HCT116, and p53-null HCT116, MRC5 and Wi38 cells were seeded at 5,000 cells per well on 96-well plates. […] Then, cells were mixed with an equal volume of CellTiter-Glo® reagents (Promega), following the manufacturer's protocol, and bioluminescence imaging was measured using the IVIS imager.

SW480 cells = assay: qRT-PCR of p53 target gene mRNA, SW480; settings: SW480, 1 μM
Procedure: Total RNA was isolated from PG3-Oc-treated cells using the Quick-RNA mini prep kit (Zymo Research, Irvine, CA) according to the manufacturer's protocol. 500 ng of total RNA was used to generate cDNA using SuperScript III first-strand synthesis system with random primers (Invitrogen), following the manufacturer's protocol. Real-time PCR was performed using POWER SYBR GREEN mast mix (Applied Biosystem) for DR5, p21, PUMA, GAPDH, and TaqMan primer-probes for detection of c-Myc mRNA levels on 7900HT Sequence Detection System (Applied Biosystem). Primers having SEQ ID NOs:1-6 (see above) were used. Taq Prob IDs for c-Myc (HS 00153408) and GAPDH (HA 99999905). ΔΔCt method was used to analyze and report fold changes of the indicated genes.

CCCCCCCCOC(=O)CCc1c(C)[nH]c(/C=C2\N=C(c3ccc[nH]3)C=C2OC)c1C [PG3-Oc, Octyl (Z)-3-(5-((4′-methoxy-1H,5′H-[2,2′-bipyrrol]-5′-ylidene)methyl)-2,4-dimethyl-1H-pyrrol-3-yl)propanoate]
induction of 65-H2AX (DNA damage marker) / foci formation [1]: did not induce | inhibition in long-term cell proliferation (panel of CRC cell lines): Over 90% | induction of cell death ([2]; SW480, DLD1, p53-null HCT116): potently induced cell death | IC50 values ([2]; SW480, DLD1, p53-null HCT116, 72 hours): within nanomolar range | induction of p21 mRNA (SW480 cells; 8 and 19 hours post-treatment): no significant change | DR5 mRNA upregulation (SW480 cells; 19 hours post-treatment): about 2 fold
